Results on one compound are retold here after publication PMC9283524 (Nature Communications, 2022).

Several values for one entry are separate records, joined by “and”; a condition that tells them apart may be missing. Equal values may be shown once.

Holding throughout (experiment): cell-based
For experiment [1], the target named is turkey β1-AR L101^2.64A (Meleagris gallopavo, UniProt P07700, L101A). On the procedure: (§1) CHO cells (transfected with a control empty vector or wild-type or mutant turkey β1-AR) were plated onto six-well plates, and were pre-incubated with culture medium buffered with 0.5 mM IBMX for 30 min at 37 °C[20]. […] After culture medium removal, cells were treated with 0.1 M HCl for 10 minutes at room temperature. After centrifugation, the supernatant was used for cAMP quantification using the Direct Cyclic AMP Enzyme Immunoassay kit (Enzo Life Sciences). […] The cAMP assays were repeated three times, and the data are represented as mean ± SD of the three independent experiments. The analysis was done using the log(agonist) vs. response function of Prism 8 (GraphPad)[20].
Sequence of turkey β1-AR L101^2.64A (P07700 whole entry L101A): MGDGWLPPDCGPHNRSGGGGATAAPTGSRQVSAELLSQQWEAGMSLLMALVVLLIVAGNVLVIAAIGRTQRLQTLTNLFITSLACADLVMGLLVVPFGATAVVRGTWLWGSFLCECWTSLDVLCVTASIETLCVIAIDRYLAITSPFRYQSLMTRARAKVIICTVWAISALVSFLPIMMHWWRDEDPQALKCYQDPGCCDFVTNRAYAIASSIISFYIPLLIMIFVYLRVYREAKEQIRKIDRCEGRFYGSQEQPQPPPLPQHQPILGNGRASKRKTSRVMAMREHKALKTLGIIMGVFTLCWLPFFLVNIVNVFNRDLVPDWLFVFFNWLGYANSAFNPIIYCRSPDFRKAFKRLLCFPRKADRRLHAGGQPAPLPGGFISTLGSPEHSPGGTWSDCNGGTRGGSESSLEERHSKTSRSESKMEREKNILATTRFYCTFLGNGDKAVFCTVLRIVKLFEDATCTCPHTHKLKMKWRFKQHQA

Experiment [2] deals with turkey β1-AR W117^3.28A (Meleagris gallopavo, UniProt P07700, W117A). The protocol:
as §1

In experiment [3] the target is turkey β1-AR T203^ECL2A (Meleagris gallopavo, UniProt P07700, T203A). On the procedure: as §1
Sequence of turkey β1-AR T203^ECL2A (P07700 whole entry T203A): as the sequence (P07700 whole entry L101A) above, with A101L, T203A counted along it
Experiment [4] addresses turkey β1-AR W330^7.40A (Meleagris gallopavo, UniProt P07700, W330A). To be noted: for cAMP level: Fig 3 source data, W330A. The protocol:
as §1

The mark [5] stands for this setting: CHO, 5 min, read-out: Efficacy (% of max cAMP level).

Sequence of turkey β1-AR W330^7.40A (P07700 whole entry W330A): as the sequence (P07700 whole entry L101A) above, with A101L, W330A counted along it
Sequence of turkey β1-AR W117^3.28A (P07700 whole entry W117A): as the sequence (P07700 whole entry L101A) above, with A101L, W117A counted along it

Regarding `CC(CCc1ccc(O)cc1)NCCc1ccc(O)c(O)c1` (stereo not drawn) [Dobutamine, dobutamine], the EC50 in experiment [1] was 6.61 µM; in experiment [2], 7.76 µM; in experiment [3], 1.58 µM; in experiment [4], 2.95 µM. Further, the Emax in experiment [1] (setting [5]) was 37 ± 1.1%; in experiment [2] (setting [5]), 16 ± 0.8%; in experiment [3] (setting [5]), 99 ± 0.7%; in experiment [4] (setting [5]) it was 85 ± 0.8%. The cAMP level in experiment [4] (log[ligand] (M) -3) was 346 and 351 and 347; in experiment [4] (log[ligand] (M) -4), 342 and 348 and 346; in experiment [4] (log[ligand] (M) -5), 266 and 272 and 271; in experiment [4] (log[ligand] (M) -6), 127 and 136 and 131; in experiment [4] (log[ligand] (M) -7) it was 58 and 65 and 63; in experiment [4] (log[ligand] (M) -8), 43 and 48. Moreover, the cAMP level in experiment [4] (log[ligand] (M) -9) was 38 and 45 and 43.
